# Columns and labels:
# murine DC cells = assay: LPS-induced IL-12, TNF-α and IL-10 production by bone marrow derived dendritic cells; format: cell-based, murine (C57BL/7); conditions: murine BM-derived DC; compound 0.01-100 μg/ml 1 h 30 before LPS 1 μg/ml; 20 h; ELISA
# Experimental: Femora and tibiae from two male C57BL/7, 6 week-old (Charles River Laboratories France), were removed, stripped of muscles and tendons, and desinfected with 70% ethanol. Both ends of each bone were cut and the marrow was flushed with HBSS (Gibco BRL) using a syringe with a 26-gauge needle. The resulting cell suspension was centrifuged for 5 min. at 500 g and washed in HBSS. The cells were resuspended at 3×10^5 cells/ml in RPMI-1640 (Gibco BRL) supplemented with 2 mM L-glutamin (Sigma), 100 U/ml penicillin (Sigma), 100 μg/ml streptomycin (Sigma), 50 μM β-mercaptoethanol (Sigma), 10% heat-inactivated FCS (Sigma) and 15 ng/ml murine rGM-CSF (R&D).
# To generate bone marrow (BM) derived dendritic cells (DC), BM leukocytes were cultured in 100-mm bacteriological petri dishes (Falcon 1029) for 8 days at 37° C. in 5% CO2. On day 0, 10 ml of cell suspension were seeded per dish. On day 3, another 10 ml of freshly prepared medium were added to each plate and on day 6, 9 ml of top medium were carefully removed from each plate and replaced by 10 ml of fresh medium.
# Non-adherent cells of the 8-day old BM cell cultures were collected, centrifuged for 5 min. at 500 g, and resuspended at 1.25×10^6 cells/ml in supplemented RPMI containing 10 ng/ml GM-CSF. The cells were then seeded in 24-well tissue culture plates ([…]) and incubated for 1 h 30 at 37° C. in 5% CO2 in the absence or presence of OM-294-DP or OM-197-MP-AC (0.01-100 μg/ml/200 μl/well). LPS (E.coli O26:B6, Sigma), was then added at 1 μg/ml, and the plates were further incubated. After 20 h incubation, the supernatants were collected for analysis of cytokines. IL-12p70, IL-10, and TNF-α concentrations in DC culture supernatants were measured by ELISA using OptEIA matched Ab pairs from BD Pharmingen. Supersignal ELISA Pico chemiluminescent peroxidase substrate (BD Pharmingen) was used for the detection by luminometry (Wallac 1420 multilabel counter Victor-2). The assays were performed according to manufacturer's instructions.
# FIG. 1: IL-12 (left panels) and IL-10 (right panels) secretion by murine DC stimulated by LPS (1 μg/ml) alone, or first during 90 minutes with the indicated concentrations (in μg/ml) of OM-197-MP-AC (A) or 294-DP (B), and then by LPS (1 μg/ml) for 20 additional hours. The supernatants were collected from the DC cultures and analyzed by ELISA for the presence of IL-12 and IL-10.
# FIG. 2: TNF-α secretion by murine DC stimulated by LPS (1 μg/ml) alone, or first during 90 minutes with the indicated concentrations (in μg/ml) of 294-DP (294), or of OM-197-MP-AC (197), and then by LPS (1 μg/ml) for 20 additional hours. The supernatants were collected from the DC cultures and analyzed by ELISA for the presence of TNF-α.
# [1] = system: Limulus Amoebocyte Lysate; assay: Limulus Amoebocyte Lysate chromogenic test (LAL endotoxicity); format: biochemical
# Experimental: Endotoxicity was determined first for OM-197-MP-AC and for OM-294-DP by the Limulus Amoebocyte Lysate chromogenic test (Chromogenic-LAL of Bio-Whittaker, kit n° 50-65OU).
# The enzymatic reaction is carried out at 37° C. and the formation of the chromogen over time is measured at 405 nm. The time necessary to reach 0.2 units of D.O. is recorded and the endotoxic activity calculated in relation to a LPS standard (standard curve). The results are expressed in EU (Endotoxin Unit) in relation to a standardized preparation of E. coli LPS (1 EU corresponds to 0.08 ng equivalent LPS).
# human CD4+ T cells = assay: Cytokine production and proliferation of naïve CD4+ T cells stimulated with anti-CD3 and anti-CD28; format: cell-based; conditions: 0.02-20 μg/ml; for IFN-γ production by CD4+ T cells / IL-13 production by CD4+ T cells: 6 days, ELISA
# Experimental: A series of four compounds of the present invention (OM-197-MP-AC, OM-197-MC-HD, OM-294-BA-MP, OM-197-MP-HD) were tested directly as summarized below:
# Naïve CD4^+ T cells were magnetically sorted from healthy blood donor (buffy coat). The cells were stimulated in the presence or not of graded doses of triacyl derivatives (0.02; 0.2; 2 and 20 μg/ml) using plate-bound anti-CD3 (5 μg/ml) and soluble anti-CD28 (1 μg/ml). After 6 days, cytokine levels (IFN-γ and IL-13) were tested in the culture supernatants using ELISA.
# FIGS. 3A-3D: Effect of increasing doses of the four compounds tested (OM-197-MP-AC, n=5; OM-197-MC-HD, n=5; OM-294-BA-MP, n=7; OM-197-MP-HD, n=3) on IFN-γ and IL-13 production of human CD4^+ T cells following a polyclonal activation. Results are expressed as the median (±p25/p75) of n independent experiments and show the percentage (%) proliferation or cytokine production of treated cells versus untreated cells (considered as 100%, see dotted line). The statistical analysis was performed using a nonparametric unpaired Mann-Whitney t test (2-tailed).
SMILES,LPS-induced production of IL-10 (murine DC cells),LPS-induced production of IL-12 (murine DC cells),LPS-induced production of TNF-α (murine DC cells),Limulus activity in the chromogenic LAL assay [1],T cell proliferation (human CD4+ T cells),IFN-γ production by CD4+ T cells (human CD4+ T cells),IL-13 production by CD4+ T cells (human CD4+ T cells)
CCCCCCCCCCCC(=O)O[C@H](CCCCCCCCCCC)CC(=O)N[C@@H](CCOP(=O)(O)O)C(=O)NCCC[C@H](COP(=O)(O)O)NC(=O)C[C@H](O)CCCCCCCCCCC [OM-294-DP],increase,decrease,decrease,very little or no Limulus activity,–,–,–
"CCCCCCCCCCCC(=O)O[C@H](CCCCCCCCCCC)CC(=O)N[C@@H](CCCCN)C(=O)NCCC[C@H](COP(=O)(O)O)NC(=O)C[C@H](O)CCCCCCCCCCC [OM-294-BA-MP, (5S,11R)-1-Amino-5-[(R)-3-dodecanoyloxytetradecanoylamino]-6-oxo-7-aza-11-[(R)-3-hydroxytetradecanoylamino]-dodecan-12-ol 12-dihydrogenophosphate]",–,–,–,–,unaffected,unaffected,reduced
"CCCCCCCCCCCC(=O)O[C@H](CCCCCCCCCCC)CC(=O)N[C@@H](CCOP(=O)(O)O)C(=O)NCCC[C@H](COC(=O)CCCCC(O)CO)NC(=O)C[C@H](O)CCCCCCCCCCC (stereo partly drawn) [OM-197-MP-HD, (3S, 9R)-3-[(R)-3-dodecanoyloxytetradecanoylamino]-4-oxo-5-aza-9-[(R)-3-hydroxytetradecanoylamino]-decan-1, 10-diol 1-dihydrogenophosphate 10-(6,7-dihydroxyheptanoate)]",–,–,–,–,unaffected,unaffected,reduced
"CCCCCCCCCCCC(=O)O[C@H](CCCCCCCCCCC)CC(=O)N[C@@H](CC(=O)O)C(=O)NCCC[C@H](COC(=O)CCCCC(O)CO)NC(=O)C[C@H](O)CCCCCCCCCCC (stereo partly drawn) [OM-197-MC-HD, N-[(R)-3-dodecanoyloxytetradecanoylamino]-L-aspartic acid, α-N-{(4R)-5-hydroxy-4-[(R)-3-hydroxytetradecanoylamino]pentyl}amide 5-O-(6,7-dihydroxyheptanoate)]",–,–,–,–,unaffected,unaffected,reduced
